Assay [1] deals with HarmOR52 (Helicoverpa armigera, UniProt A0A7T3KAH2). The experiment in a line: Xenopus oocyte two-electrode voltage clamp, HarmOR52 + Orco. In kind it is cell-based. As to the method: (§1) In order to expand our analysis on the response properties of HarmORs, we conducted dose–response analyses for the 28 functional HarmORs. […] Six HarmORs (OR3, 22, 48, 50, 56, and 66) could not be activated by any ligand at 10^−5 M. For the other 22 HarmORs, dose–response curves were generated and EC50 values of their major ligands were calculated (fig. 2A and supplementary table S2, Supplementary Material online). The HarmOR repertoire was highly efficient in terpene detection, since the lowest EC50 values were obtained for such compounds. Many of these terpenes have been proposed to be defensive chemicals of plants. […] DMNT is also one of the oviposition deterring compounds found in larval frass of some Lepidoptera species such as S. littoralis ([Anderson et al. 1993]).
Sequence of HarmOR52 (A0A7T3KAH2 entry or part of it): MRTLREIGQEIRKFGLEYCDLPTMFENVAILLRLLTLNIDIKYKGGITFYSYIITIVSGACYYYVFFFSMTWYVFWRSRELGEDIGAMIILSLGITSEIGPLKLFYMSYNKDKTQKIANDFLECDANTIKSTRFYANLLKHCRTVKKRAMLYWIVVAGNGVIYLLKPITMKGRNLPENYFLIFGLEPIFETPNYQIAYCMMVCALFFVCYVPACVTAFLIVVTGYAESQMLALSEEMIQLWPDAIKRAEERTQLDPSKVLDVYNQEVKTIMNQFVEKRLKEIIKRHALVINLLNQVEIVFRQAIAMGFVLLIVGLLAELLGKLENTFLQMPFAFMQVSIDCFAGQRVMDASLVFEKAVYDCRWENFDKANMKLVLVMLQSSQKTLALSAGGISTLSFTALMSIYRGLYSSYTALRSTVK
(§2) Functional characterization of individual ORs was performed by heterologous expression in Xenopus oocytes combined with a two-electrode voltage-clamp system ([Wang et al. 2010]). Briefly, the full-length gene of each OR and Orco were subcloned into the eukaryotic expression vector pT7TS. cRNAs were generated from linearized expression vectors using the mMESSAGE mMACHINE T7 kit (Ambion, Austin, TX). Then, the cRNA mixture of ORx and Orco (27.6 ng each) was injected (Nanoliter 2010, WPI Inc., Sarasota, FL) into oocytes (stage V–VII). The respective Orcos of different species were used for functional studies of OR42 orthologs except for the four butterfly species (V. tameamea, P. xuthus, D. plexippus, and P. rapae), in which we used the Orco from P. xuthus. After incubation in nutrient solution at 18 °C for 3–5 days, the response profile of each oocyte to multiple plant odorants was recorded via a two-electrode voltage clamp (OC-725C oocyte clamp, Warner Instruments, Hamden, CT) at a holding potential of −80 mV. Data were acquired by using a Digidata 1440 A and were analyzed by pCLAMP 10.2 software (Axon Instruments Inc., Union City, CA).
(§3) Stock solutions of each odorant were prepared at 1 M using DMSO as a solvent, and each odorant was diluted in 1× Ringer’s solution to the indicated concentrations for electrophysiological recording. For functional screening of each HarmOR, a panel of 67 odorants belonging to three types of chemical classes: terpenes, aromatics, and aliphatics (short-chain fatty acid) were used (supplementary table S1, Supplementary Material online). For functional studies of OR42 orthologs from different species, six odorants including PAA, benzaldehyde, (E)-2-hexen-1-al, cinnamaldehyde, 2-phenylethanol, and heptanal were used.

Assay [2] addresses T1, HarmOR27 (Helicoverpa armigera, UniProt A0A7T3KAG1).
T1 sequence (A0A7T3KAG1 1-426): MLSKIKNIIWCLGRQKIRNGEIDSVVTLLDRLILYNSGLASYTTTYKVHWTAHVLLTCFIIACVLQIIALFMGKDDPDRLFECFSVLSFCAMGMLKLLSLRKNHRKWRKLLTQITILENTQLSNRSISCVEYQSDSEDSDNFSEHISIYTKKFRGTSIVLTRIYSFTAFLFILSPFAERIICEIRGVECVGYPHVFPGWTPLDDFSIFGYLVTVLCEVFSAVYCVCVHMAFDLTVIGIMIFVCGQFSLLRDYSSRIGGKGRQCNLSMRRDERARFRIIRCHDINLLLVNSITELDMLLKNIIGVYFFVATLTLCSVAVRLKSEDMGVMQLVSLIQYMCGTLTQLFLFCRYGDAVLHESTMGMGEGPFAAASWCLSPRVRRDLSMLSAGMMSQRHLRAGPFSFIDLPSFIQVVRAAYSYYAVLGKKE
The experiment in a line: Xenopus oocyte two-electrode voltage clamp, HarmOR27 + Orco. In kind it is cell-based. The note with it: HarmOR27; dose response in oocytes; unit M; read-out: EC50. Here is the method:
as §1, §2, §3

For assay [3], the target named is HarmOR23 (Helicoverpa armigera, UniProt A0A7T3KAE3). Kind of assay: Xenopus oocyte two-electrode voltage clamp, HarmOR23 + Orco. Format: cell-based. The note with it: dose response in oocytes, unit M printed in text only. As to the method:
as §1
as §2, with “CA). […]” for “CA).”

Assay [4] deals with T2, HarmOR40 (Helicoverpa armigera, UniProt A0A7T3KBF4).
T2 sequence (A0A7T3KBF4 1-401): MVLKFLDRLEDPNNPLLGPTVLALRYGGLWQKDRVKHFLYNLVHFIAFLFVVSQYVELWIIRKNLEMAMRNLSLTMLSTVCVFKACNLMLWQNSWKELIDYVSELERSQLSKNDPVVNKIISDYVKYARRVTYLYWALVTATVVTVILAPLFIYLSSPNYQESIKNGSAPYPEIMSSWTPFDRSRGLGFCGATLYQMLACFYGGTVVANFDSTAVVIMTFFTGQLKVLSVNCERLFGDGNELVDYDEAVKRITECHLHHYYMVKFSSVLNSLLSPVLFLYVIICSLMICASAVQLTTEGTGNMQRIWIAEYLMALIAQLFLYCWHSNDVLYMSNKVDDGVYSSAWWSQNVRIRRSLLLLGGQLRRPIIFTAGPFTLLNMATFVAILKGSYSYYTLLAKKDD
The experiment in a line: Xenopus oocyte two-electrode voltage clamp, HarmOR40 + Orco. In kind it is cell-based. Here is the method: as §1, §2, §3

Assay [5] addresses HarmOR36 (Helicoverpa armigera, UniProt A0A7T3N0K7). The experiment in a line: Xenopus oocyte two-electrode voltage clamp, HarmOR36 + Orco. Format: cell-based. The settings on record: dose response in oocytes, unit M. As to the method:
as §1, §2, §3

For assay [6], the target named is HarmOR12 (Helicoverpa armigera, UniProt A0A172QGF5). Kind of assay: Xenopus oocyte two-electrode voltage clamp, HarmOR12 + Orco. In kind it is cell-based.
Sequence of HarmOR12 (A0A172QGF5 entry or part of it): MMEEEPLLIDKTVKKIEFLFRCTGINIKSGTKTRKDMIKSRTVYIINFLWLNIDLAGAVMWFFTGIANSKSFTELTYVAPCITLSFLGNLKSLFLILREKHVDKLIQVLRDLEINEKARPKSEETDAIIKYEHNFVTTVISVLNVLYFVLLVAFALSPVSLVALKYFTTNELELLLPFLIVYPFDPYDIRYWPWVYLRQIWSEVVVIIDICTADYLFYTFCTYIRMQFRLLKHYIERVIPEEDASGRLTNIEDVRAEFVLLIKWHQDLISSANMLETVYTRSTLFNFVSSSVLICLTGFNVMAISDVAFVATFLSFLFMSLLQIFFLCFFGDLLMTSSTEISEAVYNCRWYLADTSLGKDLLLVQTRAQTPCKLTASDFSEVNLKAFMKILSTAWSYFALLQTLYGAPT
Description: (§4) In order to expand our analysis on the response properties of HarmORs, we conducted dose–response analyses for the 28 functional HarmORs. […] Many of these terpenes have been proposed to be defensive chemicals of plants.
(§5) Briefly, the full-length gene of each OR and Orco were subcloned into the eukaryotic expression vector pT7TS. cRNAs were generated from linearized expression vectors using the mMESSAGE mMACHINE T7 kit (Ambion, Austin, TX). […] The respective Orcos of different species were used for functional studies of OR42 orthologs except for the four butterfly species (V. tameamea, P. xuthus, D. plexippus, and P. rapae), in which we used the Orco from P. xuthus.
as §3

Assay [7] addresses HarmOR31 (Helicoverpa armigera, UniProt A0A7T3N2E9). Kind of assay: Xenopus oocyte two-electrode voltage clamp, HarmOR31 + Orco. Format: cell-based. The settings on record: HarmOR31; dose response in oocytes; unit M; read-out: EC50.
Description: as §4, §5, §3

Assay [8] concerns HarmOR repertoire. Kind of assay: Responses of the 28 functional HarmORs across odorant doses (PCA of oocyte currents). In kind it is cell-based, Helicoverpa armigera. The settings on record: odorant 10^−7 M.
Description: Vectors quantifying the responses of the 28 ORs to each odorant were projected onto a 3D landscape. This 3D representation captured 78.34% (10^−4 M), 65.11% (10^−5 M), 68.89% (10^−6 M), and 84.52% (10^−7 M) of the variation in the original 28D data set across different odorant concentrations. […] In addition, the capacity of the H. armigera odor space was highly dependent on odorant concentration. As the concentrations of odorants decreased, their positions in the odor space converged, with the ability to discriminate different odorants diminishing.
as §2, §3
Graphs and data statistics of OR response spectra, dose responses, EAG, and behavioral experiments were generated by Prism 7 (GraphPad Software, La Jolla, CA). A heat map was generated in Excel 2010 (Microsoft Corporation, WA). […] For tuning breadth analysis, the kurtosis values (K) were calculated by SPSS 22 (SPSS Inc., Chicago, IL) and were used to define the tuning spectra width, where smaller K values represent broader tuning spectra (fig. 1B). […]

The target of assay [9] is HarmOR59 (Helicoverpa armigera, UniProt A0A7T3KAU6). The experiment in a line: Xenopus oocyte two-electrode voltage clamp, HarmOR59 + Orco. In kind it is cell-based. As to the method: as §1, §2, §3
Sequence of HarmOR59 (A0A7T3KAU6 entry or part of it): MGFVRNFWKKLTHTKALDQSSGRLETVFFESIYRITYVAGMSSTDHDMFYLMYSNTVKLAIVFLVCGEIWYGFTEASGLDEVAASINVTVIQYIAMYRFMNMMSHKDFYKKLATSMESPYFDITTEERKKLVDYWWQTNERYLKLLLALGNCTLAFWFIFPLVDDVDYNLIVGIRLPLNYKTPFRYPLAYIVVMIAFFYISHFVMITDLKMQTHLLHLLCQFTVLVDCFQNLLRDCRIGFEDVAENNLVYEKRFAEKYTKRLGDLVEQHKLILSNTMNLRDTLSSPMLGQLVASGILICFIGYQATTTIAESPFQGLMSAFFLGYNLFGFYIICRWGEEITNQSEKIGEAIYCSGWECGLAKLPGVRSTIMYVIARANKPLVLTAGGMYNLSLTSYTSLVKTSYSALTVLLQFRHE
In assay [10] the target is HarmOR42 (Helicoverpa armigera, UniProt A0A7T3KAF6). The experiment in a line: Xenopus oocyte two-electrode voltage clamp, HarmOR42 + Orco. The note with it: 67 odorants at 10^−4 M. Format: cell-based.
Sequence of HarmOR42 (A0A7T3KAF6 entry or part of it): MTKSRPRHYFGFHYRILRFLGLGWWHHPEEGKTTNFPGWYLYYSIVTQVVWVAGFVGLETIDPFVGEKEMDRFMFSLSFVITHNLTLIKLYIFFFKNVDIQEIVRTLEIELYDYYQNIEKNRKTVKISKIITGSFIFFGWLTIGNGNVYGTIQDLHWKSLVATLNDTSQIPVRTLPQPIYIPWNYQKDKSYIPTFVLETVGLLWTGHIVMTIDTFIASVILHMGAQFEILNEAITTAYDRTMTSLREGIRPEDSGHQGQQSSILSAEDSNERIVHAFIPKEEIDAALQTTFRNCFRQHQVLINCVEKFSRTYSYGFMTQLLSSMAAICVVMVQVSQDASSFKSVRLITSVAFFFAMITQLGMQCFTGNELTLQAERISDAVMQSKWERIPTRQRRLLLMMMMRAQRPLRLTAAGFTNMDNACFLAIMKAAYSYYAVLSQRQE
Description: In preliminary screening, we used a high dosage (10^−4 M) of odorants. […] Most functional ORs responded robustly to multiple odorants. The strongest response (up to ∼6,000 nanoampere, nA) we detected was that of HarmOR42 toward the aromatic compound PAA. Further, the response profiles of the 28 HarmORs appeared to be highly differentiated, with no apparent overlap in their tuning spectra (with the exception of HarmOR12 and 36) according to functional cluster analysis (fig. 1A).
as §1, §2, §3

Assay [11] concerns H. armigera moth antennae. The experiment in a line: Electroantennography (EAG), wild-type vs HarmOR42 knock-out moths. The settings on record: single odorants, 1 μg. Format: in vivo, Helicoverpa armigera. From the text:
We next conducted a loss-of-function study by generating a HarmOR42-lacking H. armigera strain by CRISPR/Cas9 targeting the first coding exon. Homozygous mutants were obtained with a large segment deletion of 203 bp and a 6-bp nonhomologous insertion in the genome (fig. 6B), introducing a premature stop codon in the coding sequence. […] The most likely hypothesis is that HarmOR42 is not the major receptor for sensing this compound in H. armigera. As a control, we tested the response of male moths to the sex pheromone component Z11-16: Ald that is not a ligand of HarmOR42. As expected, we observed no difference between the EAG responses of mutant and wild-type moths to this compound.
The antennae of 2- to 3-day-old virgin male and female moths were cut at the base of the flagellum. After removing the tip, one antenna was inserted between two glass electrodes filled with 0.1 M KCl solution. In each test, a 10-μl solution of each odorant was added onto a piece of filter paper (0.5 cm × 0.5 cm) and then inserted into a Pasteur pipette. About 100 ng/μl stock solutions of individual odorants and different doses of the mixture IAC were prepared with paraffin oil. A continuous airflow of 30 ml/s was produced by a stimulus controller (CS-55, Syntech, Kirchzarten, Germany). Odor stimulation was controlled by a puff of purified air (0.2 s at 10 ml/s airflow) from the CS-55. EAG signals were amplified with a 10× AC/DC headstage preamplifier (Syntech) and further acquired with an Intelligent Data Acquisition Controller (IDAC-4-USB, Syntech) ([Cao et al. 2016]). The signals were recorded, monitored, and analyzed using Syntech EAG-software (Syntech, Germany). The EAG response values for each compound were calculated by subtracting the value of the same antennae corresponding to a solvent blank of paraffin oil.

[12] abbreviates: HarmOR40, dose response in oocytes, unit M printed in text only, read-out: EC50.
[13] abbreviates: HarmOR12, dose response in oocytes, unit M, read-out: EC50.
Setting [14] is: HarmOR59, dose response in oocytes, unit M, read-out: EC50.

pEC50: −log10 of the molar value. Like-named read-outs stand apart in the source and are kept apart here.

Sequence of HarmOR31 (A0A7T3N2E9 entry or part of it): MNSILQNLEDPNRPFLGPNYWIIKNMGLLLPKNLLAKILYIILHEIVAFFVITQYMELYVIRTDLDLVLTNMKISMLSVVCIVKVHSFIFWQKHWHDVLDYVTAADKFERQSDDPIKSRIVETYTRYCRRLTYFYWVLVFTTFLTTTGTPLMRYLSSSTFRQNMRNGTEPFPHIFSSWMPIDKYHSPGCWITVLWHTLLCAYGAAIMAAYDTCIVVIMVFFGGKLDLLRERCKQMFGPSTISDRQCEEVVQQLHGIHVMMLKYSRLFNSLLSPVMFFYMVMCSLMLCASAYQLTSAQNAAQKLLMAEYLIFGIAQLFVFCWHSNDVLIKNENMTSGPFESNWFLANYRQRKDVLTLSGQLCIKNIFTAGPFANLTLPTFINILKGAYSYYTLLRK
Sequence of HarmOR23 (A0A7T3KAE3 entry or part of it): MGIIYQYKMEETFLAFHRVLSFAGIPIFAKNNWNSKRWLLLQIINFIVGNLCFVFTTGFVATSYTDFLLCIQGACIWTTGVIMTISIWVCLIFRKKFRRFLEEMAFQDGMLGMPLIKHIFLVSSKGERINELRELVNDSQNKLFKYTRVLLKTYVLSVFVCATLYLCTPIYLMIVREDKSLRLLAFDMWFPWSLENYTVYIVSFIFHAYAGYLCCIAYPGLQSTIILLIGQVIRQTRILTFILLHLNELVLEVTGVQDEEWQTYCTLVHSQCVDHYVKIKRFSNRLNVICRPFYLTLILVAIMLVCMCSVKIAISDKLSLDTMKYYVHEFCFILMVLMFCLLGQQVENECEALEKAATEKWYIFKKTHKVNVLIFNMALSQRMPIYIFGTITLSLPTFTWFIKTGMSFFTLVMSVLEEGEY
Sequence of HarmOR36 (A0A7T3N0K7 entry or part of it): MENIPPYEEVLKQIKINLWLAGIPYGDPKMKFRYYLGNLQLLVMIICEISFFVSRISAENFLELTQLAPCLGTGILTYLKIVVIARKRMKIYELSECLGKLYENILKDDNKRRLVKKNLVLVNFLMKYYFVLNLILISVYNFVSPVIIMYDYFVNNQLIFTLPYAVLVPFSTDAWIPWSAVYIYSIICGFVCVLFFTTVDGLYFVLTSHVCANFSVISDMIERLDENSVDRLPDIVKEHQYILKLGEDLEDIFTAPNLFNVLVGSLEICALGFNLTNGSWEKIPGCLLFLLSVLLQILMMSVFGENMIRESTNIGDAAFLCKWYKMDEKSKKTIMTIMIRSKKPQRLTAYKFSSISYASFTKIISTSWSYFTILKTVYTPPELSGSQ

Regarding `CC1(C)[C@H]2CC=C(CO)[C@@H]1C2` [(1R)-(-)-Myrtenol], the pEC50 in [1] (HarmOR52, dose response in oocytes, unit M, read-out: EC50) is 4.77.

Consider `CC/C=C\CC1=C(C)CCC1=O` [cis-Jasmone], for which the pEC50 in assay [2] was 4.10. On to `CC(=O)OC/C=C(\C)CCC=C(C)C` [Geranyl acetate], for which the pEC50 in assay [3] is 5.29; in assay [4] (setting [12]), 5.11.

As for `C=C[C@](C)(O)CCC=C(C)C` [(-)-Linalool], the pEC50 in assay [5] (HarmOR36, read-out: EC50) is 5.94; in [6] (setting [13]) it was 4.86.

Consider `CC(C)=CCCC(C)CCO` (stereo not drawn) [β-Citronellol], for which the pEC50 in assay [5] (HarmOR36, read-out: EC50) was 5.33; in [6] (setting [13]), 4.10.

Regarding `OCc1ccccc1` [Benzyl alcohol], in assay [1], the pEC50 was 5.16. Take `CC/C=C\CCOC(C)=O` [(Z)-3-Hexenyl acetate]: the pEC50 in assay [7] was 5.12.

Consider `C=CC(C)(O)CCC=C(C)C` (stereo not drawn) [Linalool], for which the pEC50 is 5.94 in [5] (EC50, HarmOR36) and 4.67 in assay [6]. Moreover, the “response of the HarmOR repertoire” value in assay [8] is “still responded”. As for `CCC/C=C/CO` [(E)-2-Hexen-1-ol], the values for the pEC50 in assay [9] and in assay [1] were 2.92 and 4.62, respectively.

Turning to `CCC/C=C/COC(C)=O` [(E)-2-Hexenyl acetate], in assay [7], the pEC50 is 5.30. On to `CCc1ccc(C=O)cc1` [4-Ethylbenzaldehyde], for which the pEC50 in [9] (setting [14]) is 2.92. As to `CCC(C)(O)CCCC(C)C` (stereo not drawn) [3,7-Dimethyl-3-octanol], in assay [5] (HarmOR36, read-out: EC50), the pEC50 is 5.54. As to `CCCCCC1CCCC(=O)O1` (stereo not drawn) [δ-Decanolactone], the pEC50 in [7] is 5.09.

On to (±)-Citronellal, for which the pEC50 in assay [2] was 3.48.

On to `CCC/C=C/C=O` [(E)-2-Hexen-1-al], for which, in assay [9], the pEC50 is 2.42.

Farnesene: the pEC50 in assay [3] was 5.32; in assay [3] (listed as farnesene) it was greater than 5.00; in assay [4] (HarmOR40, dose response in oocytes, unit M printed in text only, listed as farnesene, read-out: EC50) it was greater than 5.00; in [4] (setting [12]), 5.10. As for `OCCc1ccccc1` [2-Phenylethanol], in assay [9] (setting [14]), the pEC50 is 5.54. The “ligand tuning of HarmOR42” value in assay [10] was “minor ligand”. Moreover, the “response of the HarmOR repertoire” value in [8] is reported as “still responded”. The “EAG response of HarmOR42 knock-out mutants compared with wild-type moths” value in assay [11] is listed as “no significant difference”.

Turning to `CCC/C=C\CO` [(Z)-2-Hexen-1-ol], in [1], the pEC50 is 4.78. `CCCC/C=C\CCCCCCCCCC=O` [Z11-16: Ald]: the “ligand tuning of HarmOR42” value in assay [10] is reported as “not a ligand”. Besides, the “EAG response of HarmOR42 knock-out mutants compared with wild-type moths” value in [11] is “no difference”.

Consider `CC/C=C\CCO` [(Z)-3-hexen-1-ol], for which the pEC50 in assay [9] was 2.73; in [1], 4.63.

Consider `CC(C)=CCC/C(C)=C/CO` [Geraniol], for which the pEC50 in assay [4] and in [6] was 4.56 in each case.

(Values after article PMC8042770, “Odorant Receptors for Detecting Flowering Plant Cues Are Functionally Conserved across Moths and Butterflies” (Molecular Biology and Evolution, 2020).)
